System: test persons
Assay: Measuring the cooling effect: antiperspirant aerosols evaluated by test persons
Format: in vivo
Text: Measuring the Cooling Effect
Inventive antiperspirant aerosols were produced with various cooling agents and evaluated by test persons. It was shown that the cooling agent L-menthol is employable only in very small quantities, namely in quantities below 0.1 wt %, relative to the weight of the gasified aerosol formulation, corresponding to a weight fraction of 0.66 wt %, relative to the weight of the formulation, without taking into account the propellant. […] The skin compatibility in the armpit area was also worsened by menthol above 0.1 wt %, relative to the weight of the gasified aerosol formulation, corresponding to a weight fraction of 0.66 wt %, relative to the weight of the formulation, without taking into account the propellant. […] The proportion of nonresponders, 47%, was too high, however, and could not be reduced by increasing the concentration of L-menthol without the appearance of the cited inacceptable side effects.
The formulation B including 1.0 wt % of an extract of Rumex acetosa leaf in solution/suspension in isopropyl myristate with a dry substance weight of 0.5 wt %, relative to the weight of the raw material itself, was also found to be cooling by 57% of the test persons. […] The amount of dry substance of the oily Rumex acetosa leaf extract here amounted to 0.033 wt %, relative to the weight of the inventive composition without propellant. […]

**Q.** Which “employable quantity of the cooling agent” value (relative to the weight of the formulation, without taking into account the propellant) does the source give for CC(C)[C@@H]1CC[C@@H](C)C[C@H]1O [L-menthol] here?
**A.** < 0.66 wt %

**Q.** What about the “employable quantity of the cooling agent” value (relative to the weight of the gasified aerosol formulation) of the same compound?
**A.** below 0.1 wt %

From patent publication US20140348756A1, “WATER-FREE FORMULATIONS HAVING A COOLING EFFECT” (Henkel AG & Co. KGaA, priority 2011, published 2014)
